What all share (test): biochemical
Set-up in all cases: KINOMEscan (DiscoverX) competition binding screen of 97 human kinases, percent of control at 10 uM

For one experiment, the target named is TGFBR1 (Homo sapiens, UniProt P36897). On the procedure: (§1) The KINOMEscan profiling of the inhibitors were performed as per directions by the manufacturer (DiscoverX) against a panel of human protein kinases.
The target in the next experiment is MAP3K4 (Homo sapiens, UniProt Q9Y6R4). On the procedure:
as §1

Another experiment deals with T1, MEK2 (Homo sapiens, UniProt P36507).
T1 construct: gene MAP2K2
As for the experimental part:
as §1

The next experiment addresses CSF1R (Homo sapiens, UniProt P07333). On the procedure:
as §1

The next experiment concerns the target PIM2 (Homo sapiens, UniProt Q9P1W9). As for the experimental part: as §1
A further experiment concerns the target AURKA (Homo sapiens, UniProt O14965). As for the experimental part:
as §1

A further experiment concerns the target MARK3 (Homo sapiens, UniProt P27448). On the procedure:
as §1

For the next experiment, the target named is EGFR (Homo sapiens, UniProt P00533). On the procedure:
as §1

The target in another experiment is RET (Homo sapiens, UniProt P07949). On the procedure:
as §1

For a further experiment, the target named is ERBB4 (Homo sapiens, UniProt Q15303). As for the experimental part: as §1
In another experiment the target is PLK4 (Homo sapiens, UniProt O00444). On the procedure: as §1
Another experiment addresses CHEK1 (Homo sapiens, UniProt O14757). On the procedure: as §1
The next experiment has as its target FGFR2 (Homo sapiens, UniProt P21802). As for the experimental part:
as §1

The target of the next experiment is T2, p38-alpha (Homo sapiens, UniProt Q16539).
T2 construct: gene MAPK14
As for the experimental part: as §1

Another experiment addresses T3, FAK (Homo sapiens, UniProt Q05397).
T3 construct: gene PTK2
On the procedure: as §1

In another experiment the target is PDGFRA (Homo sapiens, UniProt P16234). As for the experimental part: as §1
Another experiment concerns the target CDK9 (Homo sapiens, UniProt P50750). On the procedure:
as §1

A further experiment addresses PRKCE (Homo sapiens, UniProt Q02156). As for the experimental part: as §1
Experiment [1] has as its target T4, RSK2(Kin.Dom.1-N-terminal) (Homo sapiens, UniProt P51812).
T4 construct: gene RPS6KA3; Kin.Dom.1-N-terminal
On the procedure: as §1

The target of the next experiment is PIK3CA (Homo sapiens, UniProt P42336). As for the experimental part: as §1
In another experiment the target is CSNK1D (Homo sapiens, UniProt P48730). On the procedure:
as §1

In another experiment the target is ULK2 (Homo sapiens, UniProt Q8IYT8). On the procedure: as §1
A further experiment deals with PIK3C2B (Homo sapiens, UniProt O00750). On the procedure: as §1
A further experiment concerns the target TSSK1B (Homo sapiens, UniProt Q9BXA7). On the procedure: as §1
The mark [2] stands for this setting: binding competition, % of control, read-out: RU-301 %Ctrl @ 10000nM.
Where [3] appears, read: read-out: R428 %Ctrl @ 10000nM, binding competition.

Structures are written as SMILES.

Chain of FGFR2 (P21802 whole entry): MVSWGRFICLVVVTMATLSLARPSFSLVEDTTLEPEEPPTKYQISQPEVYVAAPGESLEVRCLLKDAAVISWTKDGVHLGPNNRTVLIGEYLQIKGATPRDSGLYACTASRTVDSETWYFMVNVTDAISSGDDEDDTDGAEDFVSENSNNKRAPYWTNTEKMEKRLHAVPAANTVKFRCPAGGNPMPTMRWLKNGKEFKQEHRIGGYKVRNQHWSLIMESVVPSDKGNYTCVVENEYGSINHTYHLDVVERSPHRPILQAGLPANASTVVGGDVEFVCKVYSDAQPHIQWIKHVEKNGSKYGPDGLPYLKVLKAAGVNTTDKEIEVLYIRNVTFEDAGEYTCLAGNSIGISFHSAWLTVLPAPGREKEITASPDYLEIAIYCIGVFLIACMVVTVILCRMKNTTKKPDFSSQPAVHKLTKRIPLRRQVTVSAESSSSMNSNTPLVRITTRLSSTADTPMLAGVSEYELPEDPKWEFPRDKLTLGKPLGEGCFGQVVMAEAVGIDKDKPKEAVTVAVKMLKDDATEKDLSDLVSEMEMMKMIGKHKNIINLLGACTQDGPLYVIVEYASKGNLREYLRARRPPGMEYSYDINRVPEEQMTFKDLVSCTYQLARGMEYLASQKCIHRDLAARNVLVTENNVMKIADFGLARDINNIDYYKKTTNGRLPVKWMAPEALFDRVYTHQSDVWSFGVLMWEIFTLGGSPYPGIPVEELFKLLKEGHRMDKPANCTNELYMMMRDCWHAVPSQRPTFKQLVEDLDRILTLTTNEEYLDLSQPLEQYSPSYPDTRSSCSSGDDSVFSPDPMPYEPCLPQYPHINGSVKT
Chain of CHEK1 (O14757 whole entry): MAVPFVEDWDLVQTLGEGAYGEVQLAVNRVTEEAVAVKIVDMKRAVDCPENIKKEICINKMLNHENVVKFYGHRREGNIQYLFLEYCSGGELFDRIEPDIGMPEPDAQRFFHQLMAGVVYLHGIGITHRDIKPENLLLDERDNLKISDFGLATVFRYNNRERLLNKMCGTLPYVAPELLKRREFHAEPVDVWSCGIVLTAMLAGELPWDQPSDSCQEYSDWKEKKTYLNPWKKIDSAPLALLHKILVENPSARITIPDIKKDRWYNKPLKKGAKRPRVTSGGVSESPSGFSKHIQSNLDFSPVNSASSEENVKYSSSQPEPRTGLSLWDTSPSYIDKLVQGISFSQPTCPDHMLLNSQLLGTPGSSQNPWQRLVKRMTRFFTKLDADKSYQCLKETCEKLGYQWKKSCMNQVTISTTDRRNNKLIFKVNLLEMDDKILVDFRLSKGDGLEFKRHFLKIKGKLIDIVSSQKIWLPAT
Chain of PIK3CA (P42336 whole entry): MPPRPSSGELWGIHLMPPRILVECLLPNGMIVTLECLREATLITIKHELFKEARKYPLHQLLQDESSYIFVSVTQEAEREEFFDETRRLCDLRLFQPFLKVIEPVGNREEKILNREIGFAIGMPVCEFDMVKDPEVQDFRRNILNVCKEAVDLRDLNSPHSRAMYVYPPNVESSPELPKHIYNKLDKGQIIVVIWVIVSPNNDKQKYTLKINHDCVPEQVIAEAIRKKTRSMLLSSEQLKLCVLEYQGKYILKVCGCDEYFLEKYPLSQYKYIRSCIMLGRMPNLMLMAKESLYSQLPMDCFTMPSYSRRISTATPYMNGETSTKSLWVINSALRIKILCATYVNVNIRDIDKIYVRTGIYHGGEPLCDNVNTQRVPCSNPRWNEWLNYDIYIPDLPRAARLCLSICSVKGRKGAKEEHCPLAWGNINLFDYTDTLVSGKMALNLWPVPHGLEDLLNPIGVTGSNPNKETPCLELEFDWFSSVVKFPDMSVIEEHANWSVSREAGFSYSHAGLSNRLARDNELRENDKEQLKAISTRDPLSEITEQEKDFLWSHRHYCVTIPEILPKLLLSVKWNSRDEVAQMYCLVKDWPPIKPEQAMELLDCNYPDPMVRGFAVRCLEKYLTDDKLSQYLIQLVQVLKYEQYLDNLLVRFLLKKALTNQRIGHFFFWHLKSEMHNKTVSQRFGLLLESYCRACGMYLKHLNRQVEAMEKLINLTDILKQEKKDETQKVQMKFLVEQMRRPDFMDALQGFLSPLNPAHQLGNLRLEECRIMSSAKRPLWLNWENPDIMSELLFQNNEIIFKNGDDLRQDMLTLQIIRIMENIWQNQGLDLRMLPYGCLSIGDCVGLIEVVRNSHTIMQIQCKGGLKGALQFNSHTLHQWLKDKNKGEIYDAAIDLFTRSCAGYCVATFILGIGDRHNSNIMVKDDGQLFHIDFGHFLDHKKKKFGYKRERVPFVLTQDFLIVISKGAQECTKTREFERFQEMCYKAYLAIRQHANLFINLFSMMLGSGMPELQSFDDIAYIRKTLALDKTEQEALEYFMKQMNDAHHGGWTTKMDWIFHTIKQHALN
Chain of TGFBR1 (P36897 whole entry): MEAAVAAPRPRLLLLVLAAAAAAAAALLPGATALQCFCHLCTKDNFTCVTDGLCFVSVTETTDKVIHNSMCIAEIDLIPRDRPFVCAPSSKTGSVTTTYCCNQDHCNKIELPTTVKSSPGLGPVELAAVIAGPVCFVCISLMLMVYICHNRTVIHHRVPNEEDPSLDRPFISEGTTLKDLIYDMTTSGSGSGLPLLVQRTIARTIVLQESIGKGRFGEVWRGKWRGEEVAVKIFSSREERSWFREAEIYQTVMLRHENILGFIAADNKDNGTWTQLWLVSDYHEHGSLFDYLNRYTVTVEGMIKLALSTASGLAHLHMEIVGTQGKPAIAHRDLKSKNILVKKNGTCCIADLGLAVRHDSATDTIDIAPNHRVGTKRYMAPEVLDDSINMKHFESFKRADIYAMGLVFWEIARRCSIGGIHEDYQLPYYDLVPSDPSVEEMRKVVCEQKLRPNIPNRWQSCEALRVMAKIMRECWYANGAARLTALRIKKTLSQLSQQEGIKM
Chain of RET (P07949 whole entry): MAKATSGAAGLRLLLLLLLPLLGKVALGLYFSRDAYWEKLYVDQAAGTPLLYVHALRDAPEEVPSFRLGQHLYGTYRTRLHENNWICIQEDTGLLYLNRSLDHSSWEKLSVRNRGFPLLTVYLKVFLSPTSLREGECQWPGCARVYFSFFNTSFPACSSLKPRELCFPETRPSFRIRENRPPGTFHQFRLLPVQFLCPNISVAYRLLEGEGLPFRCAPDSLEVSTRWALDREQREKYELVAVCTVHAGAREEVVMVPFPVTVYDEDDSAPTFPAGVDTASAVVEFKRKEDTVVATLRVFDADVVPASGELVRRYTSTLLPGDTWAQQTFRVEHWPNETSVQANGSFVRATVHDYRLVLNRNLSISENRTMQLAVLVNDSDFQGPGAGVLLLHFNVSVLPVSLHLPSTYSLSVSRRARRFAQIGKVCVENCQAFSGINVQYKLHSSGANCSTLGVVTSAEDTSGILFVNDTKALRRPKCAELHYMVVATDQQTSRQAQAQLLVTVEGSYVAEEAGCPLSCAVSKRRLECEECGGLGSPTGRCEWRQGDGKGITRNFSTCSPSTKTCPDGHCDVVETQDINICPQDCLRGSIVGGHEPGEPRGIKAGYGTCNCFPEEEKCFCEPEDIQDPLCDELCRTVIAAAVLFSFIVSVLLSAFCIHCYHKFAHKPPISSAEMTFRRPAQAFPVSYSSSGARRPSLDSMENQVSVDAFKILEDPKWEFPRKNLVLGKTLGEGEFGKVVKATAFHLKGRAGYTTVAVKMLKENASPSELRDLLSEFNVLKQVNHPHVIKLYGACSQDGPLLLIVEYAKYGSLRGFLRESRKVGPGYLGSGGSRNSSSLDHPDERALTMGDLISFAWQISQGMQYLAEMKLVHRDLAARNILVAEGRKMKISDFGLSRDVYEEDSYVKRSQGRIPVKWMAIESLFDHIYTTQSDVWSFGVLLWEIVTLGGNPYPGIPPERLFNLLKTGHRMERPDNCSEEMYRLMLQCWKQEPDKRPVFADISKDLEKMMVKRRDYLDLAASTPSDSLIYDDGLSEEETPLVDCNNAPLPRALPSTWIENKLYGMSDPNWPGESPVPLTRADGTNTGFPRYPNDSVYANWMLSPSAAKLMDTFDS
Chain of CSNK1D (P48730 whole entry): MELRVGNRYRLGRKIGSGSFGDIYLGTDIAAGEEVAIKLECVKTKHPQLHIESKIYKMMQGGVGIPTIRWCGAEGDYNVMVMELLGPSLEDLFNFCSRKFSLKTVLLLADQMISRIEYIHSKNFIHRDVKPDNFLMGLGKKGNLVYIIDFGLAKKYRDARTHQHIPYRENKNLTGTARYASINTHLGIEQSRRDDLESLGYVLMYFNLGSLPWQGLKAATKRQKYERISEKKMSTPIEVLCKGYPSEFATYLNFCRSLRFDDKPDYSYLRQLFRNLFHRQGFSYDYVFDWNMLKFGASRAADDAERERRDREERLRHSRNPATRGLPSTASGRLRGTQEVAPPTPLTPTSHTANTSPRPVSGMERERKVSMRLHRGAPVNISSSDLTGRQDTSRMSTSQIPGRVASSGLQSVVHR
T2 sequence (Q16539 whole entry): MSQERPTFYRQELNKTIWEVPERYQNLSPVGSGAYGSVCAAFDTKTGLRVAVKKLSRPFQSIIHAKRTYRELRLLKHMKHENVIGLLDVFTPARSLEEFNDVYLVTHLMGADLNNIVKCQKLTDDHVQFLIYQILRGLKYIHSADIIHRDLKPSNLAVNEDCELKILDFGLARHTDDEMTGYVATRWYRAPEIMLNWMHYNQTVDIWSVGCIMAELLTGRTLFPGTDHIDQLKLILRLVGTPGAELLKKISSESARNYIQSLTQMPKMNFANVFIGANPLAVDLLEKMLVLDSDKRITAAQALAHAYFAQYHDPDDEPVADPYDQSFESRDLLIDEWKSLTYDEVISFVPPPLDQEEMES

In the case of `Cc1cc(CSc2ccccc2C(=O)NCCNc2ccc(C(F)(F)F)cc2[N+](=O)[O-])on1` [RU-301], the remaining binding at 10 µM was determined as 100% on TGFBR1 (setting [2]); 100% on MAP3K4 (setting [2]); 71% at MEK2 (setting [2]); 90% at CSF1R (setting [2]); 83% on PIM2 (setting [2]); 89% on AURKA (setting [2]). Besides, the remaining binding at 10 µM was found to be 87% at MARK3 (setting [2]); 100% on EGFR (setting [2]); 97% at RET (setting [2]); 83% at ERBB4 (setting [2]); 81% on PLK4 (setting [2]); 83% at CHEK1 (setting [2]). Besides, the remaining binding at 10 µM turned out to be 100% at FGFR2 (setting [2]); 93% on p38-alpha (setting [2]); 100% at FAK (setting [2]); 99% on PDGFRA (setting [2]); 95% on CDK9 (setting [2]); 91% on PRKCE (setting [2]). Further, the remaining binding at 10 µM in experiment [1] (setting [2]) turned out to be 74%; at PIK3CA (setting [2]) it was 100%; on CSNK1D (setting [2]), 94%; at ULK2 (setting [2]), 97%; on PIK3C2B (setting [2]), 100%; on TSSK1B (setting [2]), 78%.
For the compound `Nc1nc(Nc2ccc3c(c2)CC[C@@H](N2CCCC2)CC3)nn1-c1cc2c(nn1)-c1ccccc1CCC2` [R428], the percent of control binding at 10 µM at TGFBR1 (setting [3]) was 75%; at MAP3K4 (setting [3]) it was 0.7%; at MEK2 (setting [3]) it was 0.2%; at CSF1R (setting [3]) it was 0.35%; at PIM2 (setting [3]), 100%; at AURKA (setting [3]), 0.15%. The percent of control binding at 10 µM on MARK3 (setting [3]) came to 49%; on EGFR (setting [3]) it was 74%; at RET (setting [3]) it was 0%; on ERBB4 (setting [3]), 34%; on PLK4 (setting [3]), 1.7%; on CHEK1 (setting [3]) it was 15%. The percent of control binding at 10 µM on FGFR2 (setting [3]) is 30%; at p38-alpha (setting [3]) it was 78%; at FAK (setting [3]), 83%; on PDGFRA (setting [3]), 1.4%; at CDK9 (setting [3]), 92%; on PRKCE (setting [3]), 24%. Moreover, the percent of control binding at 10 µM in [1] (setting [3]) was 2.1%; on PIK3CA (setting [3]), 45%; at CSNK1D (setting [3]), 98%; on ULK2 (setting [3]), 1.6%; on PIK3C2B (setting [3]), 31%; at TSSK1B (setting [3]) it was 22%.

The values are drawn from PMC5341070, “Small molecule inhibitors block Gas6-inducible TAM activation and tumorigenicity” (Scientific Reports, 2017).
